Assay results taken from patent publication US20140308317A1, “Polymeric Compounds And Methods Of Making And Using The Same” (CELLCEUTIX CORPORATION, priority 2012, published 2014).
In brackets after ≈: the same amount, converted by molar mass. Read-outs that look alike come from different tables or passages of the source.

Legend:
[1] = tested on: E. Coli ATCC 25922; assay: Minimum Inhibitory Concentration (MIC), modified microbroth dilution; assay type: cell-based; settings: E. coli (25922); overnight incubation (18 hours)
[2] = tested on: NIH/3T3 cells, CRL-1658; assay: Cytotoxicity colorimetric (tetrazolium) assay; assay type: cell-based, mouse
Procedure, shortened: (§1)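 HepG2 (MEM, 10% FBS) and NIH/3T3 (DMEM, 10% BCS) monolayers seeded at 2×10^4 cells/well 24 h before use, then exposed to compounds for one hour in serum-free medium. After return to serum-containing medium, viable cells read by tetrazolium bioreduction to formazan. EC50 in μg/mL from four-parameter logistic fit.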

[3] = tested on: Staphylococcus aureus ATCC 27660; assay: Minimum Inhibitory Concentration (MIC), modified microbroth dilution; assay type: cell-based; settings: S. aureus (27660); overnight incubation (18 hours)
[4] = tested on: HepG2, HB-8065; assay: Cytotoxicity colorimetric (tetrazolium) assay; assay type: cell-based, human
Procedure, shortened: as §1

[5] = tested on: Klebsiella pneumoniae ATCC 13883; assay: Minimum Inhibitory Concentration (MIC), modified microbroth dilution; assay type: cell-based; settings: K. pneumoniae (13883); overnight incubation (18 hours)
[6] = tested on: Pseudomonas aeruginosa ATCC 10145; assay: as above; assay type: cell-based; settings: P. aeruginosa (10145); overnight incubation (18 hours)
[7] = tested on: Enterococcus faecalis ATCC 29212; assay: as above; assay type: cell-based; settings: E. faecalis (29212); overnight incubation (18 hours)
[8] = NIH/3T3 cells, one hour with compound in serum-free media
[9] = HepG2 cells, one hour with compound in serum-free media

Structure (SMILES): c1cc(CN2CCNCC2)cc(-c2ccc3sc4ccc(-c5cccc(CN6CCNCC6)c5)cc4c3c2)c1 [Compound 175]
- MIC50 E. coli [1]: 6.25 µg/mL (≈ 11.7 µM)
- EC50 NIH 3T3 (cytotoxicity) [2, 8]: 19.9 µg/mL (≈ 37.4 µM)
- MIC50 S. aureus [3]: 0.39 µg/mL (≈ 0.732 µM)
- EC50 HepG2 (cytotoxicity) [4, 9]: 19.4 µg/mL (≈ 36.4 µM)
- MIC50 K. Pnuemnoiae [5]: 12.5 µg/mL (≈ 23.5 µM)
- MIC50 P. Aeruginosa [6]: 25 µg/mL (≈ 46.9 µM)
- MIC50 E. faecalis [7]: 12.5 µg/mL (≈ 23.5 µM)

Structure (SMILES): NCCc1cccc(-c2cc3c(c(-c4cccc(CCN)c4)c2)CCc2ccccc2C3=O)c1 [Compound 152]
- MIC50 E. coli [1]: 3.13 µg/mL (≈ 7.01 µM)
- EC50 NIH 3T3 (cytotoxicity) [2, 8]: 20.9 µg/mL (≈ 46.8 µM)
- MIC50 S. aureus [3]: 1.56 µg/mL (≈ 3.49 µM)
- EC50 HepG2 (cytotoxicity) [4, 9]: 27.5 µg/mL (≈ 61.6 µM)
- MIC50 K. Pnuemnoiae [5]: 6.25 µg/mL (≈ 14 µM)
- MIC50 P. Aeruginosa [6]: 25 µg/mL (≈ 56 µM)
- MIC50 E. faecalis [7]: 3.13 µg/mL (≈ 7.01 µM)

Structure (SMILES): NCCCN(CCCN)Cc1cccc(-c2ccc3sc4ccc(-c5cccc(CN(CCCN)CCCN)c5)cc4c3c2)c1 [Compound 181]
- MIC50 E. coli [1]: 3.13 µg/mL (≈ 5.02 µM)
- EC50 NIH 3T3 (cytotoxicity) [2, 8]: 83.1 µg/mL (≈ 133 µM)
- MIC50 S. aureus [3]: 0.195 µg/mL (≈ 0.313 µM)
- EC50 HepG2 (cytotoxicity) [4, 9]: 212 µg/mL (≈ 340 µM)
- MIC50 K. Pnuemnoiae [5]: 6.25 µg/mL (≈ 10 µM)
- MIC50 P. Aeruginosa [6]: 6.25 µg/mL (≈ 10 µM)
- MIC50 E. faecalis [7]: 6.25 µg/mL (≈ 10 µM)

Structure (SMILES): CCn1c2ccc(-c3cc(C(=O)NCCN)cc(C(=O)NCCN)c3)cc2c2cc(-c3cc(C(=O)NCCN)cc(C(=O)NCCN)c3)ccc21 [Compound 169]
- MIC50 E. coli [1]: 25 µg/mL (≈ 36.1 µM)
- EC50 NIH 3T3 (cytotoxicity) [2, 8]: 450 µg/mL (≈ 650 µM)
- MIC50 S. aureus [3]: 3.13 µg/mL (≈ 4.52 µM)
- EC50 HepG2 (cytotoxicity) [4, 9]: 312 µg/mL (≈ 451 µM)
- MIC50 K. Pnuemnoiae [5]: >50 µg/mL
- MIC50 P. Aeruginosa [6]: >50 µg/mL
- MIC50 E. faecalis [7]: >50 µg/mL

Structure (SMILES): NCCCOc1cc(OCCCN)cc(-c2ccc3c(c2)c2ccccc2n3CCCN)c1 [Compound 161]
- MIC50 E. coli [1]: >50 µg/mL
- EC50 NIH 3T3 (cytotoxicity) [2]: >1000 µg/mL
- MIC50 S. aureus [3]: 25 µg/mL (≈ 56 µM)
- EC50 HepG2 (cytotoxicity) [4]: 790 µg/mL (≈ 1770 µM)
- MIC50 K. Pnuemnoiae [5]: >50 µg/mL
- MIC50 P. Aeruginosa [6]: 50 µg/mL (≈ 112 µM)
- MIC50 E. faecalis [7]: 3.13 µg/mL (≈ 7.01 µM)

Structure (SMILES): Cc1cc(-c2cc(OCCCN)cc(OCCCN)c2)cc(-c2cc(C)cc(-c3cc(OCCCN)cc(OCCCN)c3)c2)c1 [Compound 147]
- MIC50 E. coli [1]: 1.56 µg/mL (≈ 2.49 µM)
- EC50 NIH 3T3 (cytotoxicity) [2, 8]: 50.94 µg/mL (≈ 81.3 µM)
- MIC50 S. aureus [3]: 0.39 µg/mL (≈ 0.622 µM)
- EC50 HepG2 (cytotoxicity) [4, 9]: 164 µg/mL (≈ 262 µM)
- MIC50 K. Pnuemnoiae [5]: 1.56 µg/mL (≈ 2.49 µM)
- MIC50 P. Aeruginosa [6]: 6.25 µg/mL (≈ 9.97 µM)
- MIC50 E. faecalis [7]: 0.78 µg/mL (≈ 1.24 µM)

Structure (SMILES): N=C(N)NCCCc1cccc(-c2cc(-c3cccc(CCCNC(=N)N)c3)cc(C(F)(F)F)c2)c1 [Compound 114]
- MIC50 E. coli [1]: 3.13 µg/mL (≈ 6.3 µM)
- EC50 NIH 3T3 (cytotoxicity) [2, 8]: 83.5 µg/mL (≈ 168 µM)
- MIC50 S. aureus [3]: 0.78 µg/mL (≈ 1.57 µM)
- EC50 HepG2 (cytotoxicity) [4, 9]: 60.6 µg/mL (≈ 122 µM)
- MIC50 K. Pnuemnoiae [5]: 3.13 µg/mL (≈ 6.3 µM)
- MIC50 P. Aeruginosa [6]: 12.5 µg/mL (≈ 25.2 µM)
- MIC50 E. faecalis [7]: 1.56 µg/mL (≈ 3.14 µM)

Structure (SMILES): NCCc1cccc(-c2ccc3c(c2)C(=O)c2cc(-c4cccc(CCN)c4)ccc2CC3)c1 [Compound 153]
- MIC50 E. coli [1]: 6.25 µg/mL (≈ 14 µM)
- EC50 NIH 3T3 (cytotoxicity) [2, 8]: 53.3 µg/mL (≈ 119 µM)
- MIC50 S. aureus [3]: 1.56 µg/mL (≈ 3.49 µM)
- EC50 HepG2 (cytotoxicity) [4, 9]: 80.6 µg/mL (≈ 180 µM)
- MIC50 K. Pnuemnoiae [5]: 6.25 µg/mL (≈ 14 µM)
- MIC50 P. Aeruginosa [6]: 25 µg/mL (≈ 56 µM)
- MIC50 E. faecalis [7]: 3.13 µg/mL (≈ 7.01 µM)

Structure (SMILES): NCCN(CCN)Cc1cccc(-c2ccc3sc4ccc(-c5cccc(CN(CCN)CCN)c5)cc4c3c2)c1 [Compound 174]
- MIC50 E. coli [1]: 3.13 µg/mL (≈ 5.52 µM)
- EC50 NIH 3T3 (cytotoxicity) [2, 8]: 149 µg/mL (≈ 263 µM)
- MIC50 S. aureus [3]: 0.195 µg/mL (≈ 0.344 µM)
- EC50 HepG2 (cytotoxicity) [4, 9]: 171 µg/mL (≈ 302 µM)
- MIC50 K. Pnuemnoiae [5]: 3.13 µg/mL (≈ 5.52 µM)
- MIC50 P. Aeruginosa [6]: 3.13 µg/mL (≈ 5.52 µM)
- MIC50 E. faecalis [7]: 3.13 µg/mL (≈ 5.52 µM)

Structure (SMILES): NCCCOc1cc(OCCCN)cc(-c2cc(F)cc(-c3cc(F)cc(-c4cc(OCCCN)cc(OCCCN)c4)c3)c2)c1 [Compound 148]
- MIC50 E. coli [1]: 1.56 µg/mL (≈ 2.46 µM)
- EC50 NIH 3T3 (cytotoxicity) [2, 8]: 53.77 µg/mL (≈ 84.7 µM)
- MIC50 S. aureus [3]: 0.39 µg/mL (≈ 0.614 µM)
- EC50 HepG2 (cytotoxicity) [4, 9]: 244 µg/mL (≈ 384 µM)
- MIC50 K. Pnuemnoiae [5]: 1.56 µg/mL (≈ 2.46 µM)
- MIC50 P. Aeruginosa [6]: 3.13 µg/mL (≈ 4.93 µM)
- MIC50 E. faecalis [7]: 0.78 µg/mL (≈ 1.23 µM)

Structure (SMILES): Cc1cc(-c2cc(OCCCN)cc(OCCCN)c2)cc(-c2cc(-c3cc(OCCCN)cc(OCCCN)c3)cc(C)c2F)c1F [Compound 149]
- MIC50 E. coli [1]: 3.13 µg/mL (≈ 4.72 µM)
- EC50 NIH 3T3 (cytotoxicity) [2, 8]: 59.19 µg/mL (≈ 89.3 µM)
- MIC50 S. aureus [3]: 0.78 µg/mL (≈ 1.18 µM)
- EC50 HepG2 (cytotoxicity) [4, 9]: 98.5 µg/mL (≈ 149 µM)
- MIC50 K. Pnuemnoiae [5]: 3.13 µg/mL (≈ 4.72 µM)
- MIC50 P. Aeruginosa [6]: 6.25 µg/mL (≈ 9.43 µM)
- MIC50 E. faecalis [7]: 1.56 µg/mL (≈ 2.35 µM)

Structure (SMILES): N=C(N)NCCc1cc(CCNC(=N)N)cc(-c2cc(F)cc(-c3cc(F)cc(-c4cc(CCNC(=N)N)cc(CCNC(=N)N)c4)c3)c2)c1 [Compound 151]
- MIC50 E. coli [1]: 1.56 µg/mL (≈ 2.28 µM)
- EC50 NIH 3T3 (cytotoxicity) [2, 8]: 72.14 µg/mL (≈ 106 µM)
- MIC50 S. aureus [3]: 0.78 µg/mL (≈ 1.14 µM)
- EC50 HepG2 (cytotoxicity) [4, 9]: 254 µg/mL (≈ 372 µM)
- MIC50 K. Pnuemnoiae [5]: 3.13 µg/mL (≈ 4.58 µM)
- MIC50 P. Aeruginosa [6]: 12.5 µg/mL (≈ 18.3 µM)
- MIC50 E. faecalis [7]: 1.56 µg/mL (≈ 2.28 µM)

Structure (SMILES): NCCCOc1cc(OCCCN)cc(-c2cc(-c3cc(-c4cc(OCCCN)cc(OCCCN)c4)cc(C(F)(F)F)c3)cc(C(F)(F)F)c2)c1 [Compound 146]
- MIC50 E. coli [1]: 1.56 to 3.13 µg/mL
- EC50 NIH 3T3 (cytotoxicity) [2, 8]: 35.82 µg/mL (≈ 48.7 µM)
- MIC50 S. aureus [3]: 1.56 µg/mL (≈ 2.12 µM)
- EC50 HepG2 (cytotoxicity) [4, 9]: 58.6 µg/mL (≈ 79.8 µM)
- MIC50 K. Pnuemnoiae [5]: 1.56 to 3.13 µg/mL
- MIC50 P. Aeruginosa [6]: 6.25 µg/mL (≈ 8.51 µM)
- MIC50 E. faecalis [7]: 0.78 to 1.56 µg/mL

Structure (SMILES): NCCCOc1cc(OCCCN)cc(-c2ccc(F)c(-c3cc(-c4cc(OCCCN)cc(OCCCN)c4)ccc3F)c2)c1 [Compound 145]
- MIC50 E. coli [1]: 1.56 to 3.13 µg/mL
- EC50 NIH 3T3 (cytotoxicity) [2, 8]: 146.3 µg/mL (≈ 230 µM)
- MIC50 S. aureus [3]: 1.56 µg/mL (≈ 2.46 µM)
- EC50 HepG2 (cytotoxicity) [4, 9]: 302 µg/mL (≈ 476 µM)
- MIC50 K. Pnuemnoiae [5]: 1.56 to 3.13 µg/mL
- MIC50 P. Aeruginosa [6]: 12.5 µg/mL (≈ 19.7 µM)
- MIC50 E. faecalis [7]: 0.78 to 1.56 µg/mL
